Test results published in article PMC5634595, “Properties of halogenated and sulfonated porphyrins relevant for the selection of photosensitizers in anticancer and antimicrobial therapies” (PLoS ONE, 2017).

Assay: Fluorescence emission and fluorescence quantum yield (comparative method)
Type: physicochemical
Details: EtOH, TPP as standard
Experimental: Fluorescence emission spectra were recorded from 550 nm to 750 nm with excitation at Soret band (λ≈420 nm). The excitation and emission slits were both set to 8 nm and scanning speed to 50 nm/min. Fluorescence spectra were recorded with a Perkin Elmer Fluorescence Spectrometer LS 55. Determination of fluorescence quantum yields: ΦF of studied photosensitizers was determined using the comparative method according to the equation: ΦF=ΦFStd⋅FAStdn^2/FStdAnStd2, (1) where F and FStd are the areas under the fluorescence emission curves of the sample and the standard, A and AStd are the absorbance of the sample and the standard and n are the refractive indices of the solvent used for the sample and the standard, respectively. Commercially available tetraphenylporphyrin TPP (Std) (ΦF = 0.10 in toluene) was employed as the standard. The absorbance of the solutions at the excitation wavelength was in the range of 0.02. Singlet oxygen quantum yields were determined based on the relative phosphorescence emissions of singlet oxygen generated by a reference and by each one of the porphyrins, using a method described elsewhere. Briefly, a modified Applied Photophysics LKS.60 flash photolysis spectrometer with a Hamamatsu NIR photomultiplier for detection and HP Infinium (500 MHz, 1GSas^-1) or Tektronix DPO 7254 (2.5 GHz, 40GSas^-1) oscilloscopes were used. The adaptation of this spectrometer allowed for the detection of singlet oxygen phosphorescence at room temperature. This emission was detected using a Hamamatsu R5509–42 photomultiplier, cooled to 193 K in a liquid nitrogen chamber. […] The modification of the spectrometer for time-resolved singlet oxygen phosphorescence measurements involved the interposition of a Melles Griot cold mirror (03MCS005), which reflects more than 99% of the incident light in the 400–700 nm range, and of a Scotch RG665 filter. A 600 line diffraction grating was mounted in place of a standard one. […] Solutions of photosensitizers were prepared with matched absorbances close to 0.2 at 355 nm. […]

## O=S(=O)(O)c1ccc(F)c(-c2c3nc(c(-c4c(F)ccc(S(=O)(=O)O)c4F)c4ccc([nH]4)c(-c4c(F)ccc(S(=O)(=O)O)c4F)c4nc(c(-c5c(F)ccc(S(=O)(=O)O)c5F)c5ccc2[nH]5)C=C4)C=C3)c1F [F2POH, 5,10,15,20-tetrakis(2,6-difluoro-3-sulfophenyl)porphyrin]
  Fluorescence quantum yield ΦF: 0.040
